Reference: publication PMC8150775, “Repositioning Azelnidipine as a Dual Inhibitor Targeting CD47/SIRPα and TIGIT/PVR Pathways for Cancer Immuno-Therapy” (Biomolecules, 2021)

Biological target: T1, human PD-1/PD-L1 (Homo sapiens, UniProt Q15116)
T1 construct: host or cells: CHOK1-hPD-L1 cells
Test: Blocking assay, PD-1-Fc protein binding to CHOK1-hPD-L1 cells
Details: 100 μM
Source text: The small molecule inhibitor could not only bind to the target; most importantly, it should interfere with the receptor–ligand interactions. Subsequently, the candidate inhibitors were screened by the blocking assays with the established CD47 and TIGIT over-expressing cell lines. The test was initialed with a preliminary screening of the candidates with a single concentration (Figure 2D). Generally, the SMI blocking efficacy to the CD47/SIRPα interaction was much higher than that of the TIGIT/PVR. […] Therefore, the SMI-F11 and SMI-F17 may exert dual blocking effects in the CD47/SIRPα and TIGIT/PVR pathways. Blocking assays with a concentration gradient of the SMI were further performed to validate the preliminary screening. […] The similar blocking assays with the mouse CD47 and TIGIT over-expressing cells were also performed. […] Considering that most pairs of the immune checkpoints interact with the corresponding ligand in parallel forms, the blocking assays with the PD-1/PD-L1 interaction system was also conducted to test the specificity.
There are three supplemental Figures and one supplemental Table.
Supplemental figure and legend
Figure S1. The blocking efficacy of PD-1/PD-L1 by Azelnidipine. (A) The representative FACS histogram of blocking assay of Azelnidipine (100 μM) with CHOK1-hPD-L1 cells and PD-1-Fc protein (blue histogram). […]

T1 sequence (Q15116 25-167 limits assumed): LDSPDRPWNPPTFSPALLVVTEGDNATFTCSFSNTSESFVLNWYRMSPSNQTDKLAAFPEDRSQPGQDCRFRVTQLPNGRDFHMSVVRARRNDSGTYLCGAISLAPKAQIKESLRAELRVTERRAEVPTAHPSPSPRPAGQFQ

blocking of human PD-1/PD-L1 interaction: could not block
Structure (SMILES): CC1=C(C(=O)OC(C)C)C(c2cccc([N+](=O)[O-])c2)C(C(=O)OC2CN(C(c3ccccc3)c3ccccc3)C2)=C(N)N1 (stereo not shown) [Azelnidipine]
